What was measured:
[1] = system: UGT; assay: Metabolic stability test (UGT), guinea pig microsomes; type: in vitro ADME; settings: Guinea pig liver or small intestine microsomes 0.5 mg protein/mL, compound 1 μM, UDPGA 2 mM, 5 minutes at 37° C.
Method: (§1) DMSO was added to the compound of Example 1 to dissolve the compound, and then acetonitrile and water were added to prepare a test compound solution (10 μM). The test compound solution (final concentration 1 μM), a potassium phosphate buffer (pH 7.4) containing MgCl2 (9 mM) and alamethicin (25 μg/mL), and a rat or guinea pig liver or small intestine microsomal suspension were mixed (final concentration 0.5 mg protein/mL) under ice cooling. After 5 minutes of pre-incubation at 37° C. with stirring, a UDPGA solution (final concentration 2 mM) was added to initiate the reaction. After 5 minutes of incubation at 37° C. with stirring, 3-fold volume of acetonitrile was added, and the resulting mixture was stirred to terminate the enzymatic reaction. The reaction mixture was centrifuged (1500×g, 10 minutes, 4° C.), and the supernatant was mixed with an internal standard solution to prepare a measurement sample. The concentration of the compound in the sample was determined by LC-MS/MS. A sample in which the enzymatic reaction was not allowed was separately prepared, and the concentration measured for this sample was used as the initial value. For comparison, the compound of International Publication WO2017/73709, Example 182 was tested in the same manner.

[2] = Blood concentration (plasma pharmacokinetics after oral administration); type: in vivo; settings: female, guinea pig, guinea pigs, oral 10 mg/kg, mean (n = 2)
Method: The compound of Example 1 and the compound disclosed in International Patent Publication WO2017/73709, Example 182 were weighed in an amount of 10 mg each for a dose of 10 mg/kg, and each compound was finely ground in an agate mortar for about 30 seconds. 0.5% Methyl cellulose 400 solution (Fujifilm Wako Pure Chemicals Co., Ltd.) was added small portionwise to each compound to form a suspension, finally the mortar was washed with a small volume of 0.5% MC400 solution, which was combined with the suspension, and the total volume of the suspension was made to be 10 mL with 0.5% MC400 solution. The suspension was sonicated for approximately 1 minute to prepare a 1 mg/mL solution for administration. The solution was administered to two female guinea pigs at a dose of 10 mL/kg using a flexible oral catheter (RZ-1, Nippon Clea), and blood was collected 0.5, 1, 2, 4, 6, 10, and 24 hours after the oral administration, and centrifuged to obtain plasma. Plasma concentrations of the compounds were measured by the LC-MS/MS (liquid chromatography-tandem mass spectrometry) method.

[3] = target: T1, human mPGES-1 (Homo sapiens, UniProt O14684); assay: Test for mPGES-1 inhibitory activity; type: biochemical; settings: microsomes of COS-1 cells expressing human mPGES-1; PGH2 1 μM; 4° C.; PGE2 by EIA; read-out: IC50 value (mPGES-1 inhibition)
T1 construct: expressed in transfected cells; host or cells: COS-1 cells (microsomal fraction)
T1 sequence (O14684 1-152): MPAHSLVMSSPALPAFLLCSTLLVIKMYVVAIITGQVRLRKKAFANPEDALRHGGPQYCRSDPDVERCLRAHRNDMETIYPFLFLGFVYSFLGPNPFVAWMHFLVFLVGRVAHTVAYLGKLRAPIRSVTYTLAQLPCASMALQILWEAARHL
Method: Microsomes were prepared from COS-1 cells transiently transfected with a plasmid containing human mPGES-1 cDNA, and used as mPGES-1 enzyme. The mPGES-1 enzyme was diluted with a sodium phosphate buffer (pH 7.2) containing reduced glutathione (2.5 mM) and EDTA (1 mM), DMSO or a DMSO solution of a test compound (final concentration of DMSO was 1%) was added to the enzyme, and the mixture was preincubated at 4° C. for 15 minutes. Then, PGH2 as the substrate was added at a final concentration of 1 μM to start the enzymatic reaction, and after incubation at 4° C. for 4 minutes, a solution of ferric chloride (25 mM) and citric acid (50 mM) was added to terminate the enzymatic reaction. Generated PGE2 was measured by using Prostaglandin E2 Express EIA Kit (Cayman Chemical). IC50 values were determined by using a standard method.

[4] = Solubility test; type: physicochemical; settings: aqueous buffer, kinetic from dmso stock; JP2 solution (pH 6.8), 10 mM DMSO solution diluted 50-fold, incubation 16 to 24 hours
Method: A 10 mM solution of the compound of Example 1 in DMSO was prepared, and diluted 50-fold with JP2 solution (pH 6.8). After incubation for 16 to 24 hours, the test solution was filtered, and the concentration of the compound in the filtrate was determined by HPLC-UV or with a plate reader. For comparison, the compound of International Patent Publication WO2017/73709, Example 182 was tested in the same manner.

[5] = system: UGT; assay: Metabolic stability test (UGT), rat microsomes; type: in vitro ADME; settings: Rat liver or small intestine microsomes 0.5 mg protein/mL, compound 1 μM, UDPGA 2 mM, 5 minutes at 37° C.
Method: as §1

- UGT metabolic stability [1]: 130 μL/min/mg protein
- AUC(0-inf) [2]: 62.1 µM·h
- AUC(0-t) [2]: 42.4 µM·h
- Cmax [2]: 5.63 µM
- Tmax [2]: 1.5 h
- half-life [2]: 13.3 h
- MRT inf ([2]; read-out: MRT0-∞): 18.3 h
- IC50 [3]: 1.8 nM
- solubility [4]: > 110 µg/mL
- UGT metabolic stability [5]: 124 μL/min/mg protein
Compound: CC(C)(F)C(=O)NCc1ccc(C(F)(F)F)c(-c2nc(-c3ccc(C(F)(F)F)cn3)cc(=O)[nH]2)c1F [Example 1, 2-Fluoro-N-(2-fluoro-3-{6-oxo-4-[5-(trifluoromethyl)pyridin-2-yl]-1,6-dihydropyrimidin-2-yl}-4-(trifluoromethyl)benzyl)-2-methylpropanamide]

— patent US12552769B2, “Pyrimidine derivative” (ASKA PHARMACEUTICAL CO., LTD., priority 2021, dated 2026)
